Assay results reported in PubChem BioAssay (NCI).
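At the GI50, growth is halved. TGI: total growth inhibition.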

Tests used:
Assay in all cases: NCI-60 cell line screen, 384-well format
A498 renal = test system: A498 renal
CAKI-1 renal = test system: CAKI-1 renal
CCRF-CEM leukemia = test system: CCRF-CEM leukemia
COLO 205 colon = test system: COLO 205 colon
DU-145 prostate = test system: DU-145 prostate
EKVX NSCLC = test system: EKVX NSCLC
HCC-2998 colon = test system: HCC-2998 colon
HCT-116 colon = test system: HCT-116 colon
HCT-15 colon = test system: HCT-15 colon
HL-60(TB) leukemia = test system: HL-60(TB) leukemia
HOP-62 NSCLC = test system: HOP-62 NSCLC
HOP-92 NSCLC = test system: HOP-92 NSCLC
HS 578T breast = test system: HS 578T breast
IGROV1 ovarian = test system: IGROV1 ovarian
K-562 leukemia = test system: K-562 leukemia
KM12 colon = test system: KM12 colon
M14 melanoma = test system: M14 melanoma
MALME-3M melanoma = test system: MALME-3M melanoma
MDA-MB-231 breast = test system: MDA-MB-231 breast
MDA-MB-435 melanoma = test system: MDA-MB-435 melanoma
MDA-MB-468 breast = test system: MDA-MB-468 breast
NCI-H322M lung = test system: NCI-H322M lung
NCI-H460 NSCLC = test system: NCI-H460 NSCLC
NCI-H522 lung = test system: NCI-H522 lung
NCI/ADR-RES ovarian = test system: NCI/ADR-RES ovarian
OVCAR-3 ovarian = test system: OVCAR-3 ovarian
OVCAR-4 ovarian = test system: OVCAR-4 ovarian
OVCAR-5 ovarian = test system: OVCAR-5 ovarian
OVCAR-8 ovarian = test system: OVCAR-8 ovarian
PC-3 prostate = test system: PC-3 prostate
RPMI-8226 leukemia = test system: RPMI-8226 leukemia
RXF 393 renal = test system: RXF 393 renal
SF-268 CNS = test system: SF-268 CNS
SF-539 CNS = test system: SF-539 CNS
SK-MEL-2 melanoma = test system: SK-MEL-2 melanoma
SK-MEL-28 melanoma = test system: SK-MEL-28 melanoma
SK-MEL-5 melanoma = test system: SK-MEL-5 melanoma
SK-OV-3 ovarian = test system: SK-OV-3 ovarian
SN12C renal = test system: SN12C renal
SNB-19 CNS = test system: SNB-19 CNS
SR leukemia = test system: SR leukemia
SW-620 colon = test system: SW-620 colon
T-47D breast = test system: T-47D breast
TK-10 renal = test system: TK-10 renal
U251 glioblastoma = test system: U251 glioblastoma
UACC-257 melanoma = test system: UACC-257 melanoma
UO-31 renal = test system: UO-31 renal

SMILES: N#Cc1c(N)nc(N)nc1N[C@H](c1nc2c(F)ccc(Cl)c2c(=O)n1-c1cccnc1)C1CC1
- GI50 (A498 renal): 0.445 µM
- TGI (A498 renal): 3.11 µM
- GI50 (CAKI-1 renal): 2.3 µM
- TGI (CAKI-1 renal): > 100 µM
- GI50 (CCRF-CEM leukemia): 1.42 µM
- TGI (CCRF-CEM leukemia): 10.6 µM
- GI50 (COLO 205 colon): 19.8 µM
- TGI (COLO 205 colon): > 91.6 µM
- GI50 (DU-145 prostate): 13.4 µM
- TGI (DU-145 prostate): > 85.1 µM
- GI50 (EKVX NSCLC): 2.63 µM
- TGI (EKVX NSCLC): 17.6 µM
- GI50 (HCC-2998 colon): 11 µM
- TGI (HCC-2998 colon): 24.5 µM
- GI50 (HCT-116 colon): 16.1 µM
- TGI (HCT-116 colon): 35.9 µM
- GI50 (HCT-15 colon): 16.1 µM
- TGI (HCT-15 colon): 44.9 µM
- GI50 (HL-60(TB) leukemia): 1.13 µM
- TGI (HL-60(TB) leukemia): 7.85 µM
- GI50 (HOP-62 NSCLC): 17.9 µM
- TGI (HOP-62 NSCLC): > 65.3 µM
- GI50 (HOP-92 NSCLC): 0.677 µM
- TGI (HOP-92 NSCLC): 14.3 µM
- GI50 (HS 578T breast): 1.79 µM
- TGI (HS 578T breast): 15.4 µM
- GI50 (IGROV1 ovarian): 1.64 µM
- TGI (IGROV1 ovarian): 4.18 µM
- GI50 (K-562 leukemia): 17.8 µM
- TGI (K-562 leukemia): 38.1 µM
- GI50 (KM12 colon): 17.8 µM
- TGI (KM12 colon): 52.3 µM
- GI50 (M14 melanoma): 79 µM
- TGI (M14 melanoma): > 100 µM
- GI50 (MALME-3M melanoma): > 39.9 µM
- TGI (MALME-3M melanoma): > 100 µM
- GI50 (MDA-MB-231 breast): 9.59 µM
- TGI (MDA-MB-231 breast): 34.2 µM
- GI50 (MDA-MB-435 melanoma): 35.4 µM
- TGI (MDA-MB-435 melanoma): > 100 µM
- GI50 (MDA-MB-468 breast): 0.912 µM
- TGI (MDA-MB-468 breast): 5.94 µM
- GI50 (NCI-H322M lung): 14.9 µM
- TGI (NCI-H322M lung): > 80.1 µM
- GI50 (NCI-H460 NSCLC): 5.48 µM
- TGI (NCI-H460 NSCLC): > 100 µM
- GI50 (NCI-H522 lung): 16.9 µM
- TGI (NCI-H522 lung): 48.5 µM
- GI50 (NCI/ADR-RES ovarian): 34.2 µM
- TGI (NCI/ADR-RES ovarian): > 100 µM
- GI50 (OVCAR-3 ovarian): 0.728 µM
- TGI (OVCAR-3 ovarian): 6.73 µM
- GI50 (OVCAR-4 ovarian): 10.8 µM
- TGI (OVCAR-4 ovarian): 52.7 µM
- GI50 (OVCAR-5 ovarian): 9.12 µM
- TGI (OVCAR-5 ovarian): 43.1 µM
- GI50 (OVCAR-8 ovarian): 13.4 µM
- TGI (OVCAR-8 ovarian): 32.7 µM
- GI50 (PC-3 prostate): 1.08 µM
- TGI (PC-3 prostate): 14 µM
- GI50 (RPMI-8226 leukemia): 3.36 µM
- TGI (RPMI-8226 leukemia): 10.3 µM
- GI50 (RXF 393 renal): 0.2 µM
- TGI (RXF 393 renal): 0.936 µM
- GI50 (SF-268 CNS): 13.9 µM
- TGI (SF-268 CNS): 51.1 µM
- GI50 (SF-539 CNS): 5.96 µM
- TGI (SF-539 CNS): 44.5 µM
- GI50 (SK-MEL-2 melanoma): 17.3 µM
- TGI (SK-MEL-2 melanoma): 39.3 µM
- GI50 (SK-MEL-28 melanoma): 3.88 µM
- TGI (SK-MEL-28 melanoma): > 100 µM
- GI50 (SK-MEL-5 melanoma): 12.6 µM
- TGI (SK-MEL-5 melanoma): 34.3 µM
- GI50 (SK-OV-3 ovarian): 4.36 µM
- TGI (SK-OV-3 ovarian): 37.5 µM
- GI50 (SN12C renal): 4.29 µM
- TGI (SN12C renal): > 100 µM
- GI50 (SNB-19 CNS): 15 µM
- TGI (SNB-19 CNS): 31.8 µM
- GI50 (SR leukemia): 10.5 µM
- TGI (SR leukemia): 22.5 µM
- GI50 (SW-620 colon): 11.9 µM
- TGI (SW-620 colon): 36.3 µM
- GI50 (T-47D breast): 1.02 µM
- TGI (T-47D breast): 5.99 µM
- GI50 (TK-10 renal): 4.55 µM
- TGI (TK-10 renal): 29.1 µM
- GI50 (U251 glioblastoma): 18.3 µM
- TGI (U251 glioblastoma): 61.9 µM
- GI50 (UACC-257 melanoma): 19.5 µM
- TGI (UACC-257 melanoma): > 100 µM
- GI50 (UO-31 renal): 2.64 µM
- TGI (UO-31 renal): 8.87 µM
